The values below come from ChEMBL document CHEMBL3882728, “Amino-substituted quinazoline derivatives as inhibitors of Beta-catenin/TCF-4 pathway and cancer treatment agents” (2009).

Some results are limits rather than exact numbers.

The experiment in a line: Cytotoxicity against human SV5A8 cells expressing SV40 binding sites driving firefly/renilla luciferase reporter gene after 24 hrs by luminometer. It counts as cell-based. As to conditions: SV5A8, 24 h. (In general: In a reporter assay the amount or activity of a reporter protein is the signal.)
For `CNc1nc(NCc2ccc(NC(=O)c3ccc(Cl)cc3F)cc2)c2cc(C)ccc2n1`, the IC50 – broadly, the concentration that inhibits the measured activity by half – was above 2.78 µM.
The compound `Cc1ccc2nc(N(C)C)nc(NCc3ccc(NC(=O)c4ccc(F)cc4)cc3)c2c1` showed an IC50 of 5.82 to 11.6 µM.
`Cc1cc(C)c2nc(N3CCN[C@@H](C)C3)nc(NCc3ccc(NC(=O)c4ccc(F)cc4)cc3)c2c1` registered an IC50 above 5.01 µM.
`CNc1nc(NCc2ccc(NC(=O)c3cccnc3)cc2)c2cc([N+](=O)[O-])ccc2n1` returned an IC50 above 23.3 µM.
Regarding `Cc1ccc2c(NCc3ccc(NC(=O)C4CCN(Cc5ccccc5)CC4)cc3)nc(N3CCC3)nc2c1`, the IC50 was in the range of 9.6 to 17.3 µM.
As to `CNc1nc(NCc2ccc(NC(=O)c3ccc(Cl)nc3)cc2)c2cccc(C)c2n1`, the IC50 was in the range of 2.89 to 21.6 µM.
